Data: patent US20250059139A1, “COMPOUNDS FOR TREATMENT OF CANCER” (THE JOHNS HOPKINS UNIVERSITY, priority 2021, published 2025)

Columns and labels:
[1] = test system: CWR-22Rv1 parental wild type cells; assay: In vivo growth of CWR-22Rv1 parental wild type xenografts; set-up: species or system human; details: daily oral 10 mg/kg/d
From the text: (§1) Prostate Cancer Models. The source, history, and characteristics of the human prostate cancer cell lines and PDXs used, as well as cell culture conditions for their in vitro maintenance and the in vivo protocol for xenograft growth in triple immune-deficient NSG (i.e. NOD.Cg-PrkdcScidIl2rgtmlWji/Szj), adult (>8 week old) male mice obtained from the Sidney Kimmel Comprehensive Cancer Center (SKCCC) Animal Core Facility are described previously (Isaacs 2013; Brennen et al. JCI Insight. 2021, 6(8):e146827; Zhu et al. Oncogene 2020, 39(45): 6935-6949). […] In vitro growth curves were determined as described (Isaacs 2013). In vivo growth response to oral daily TasQ (10 mg/kg/d) of TRAMP-C2 mouse prostate cancers was evaluated in C57BL/6J syngeneic wild type vs. NOX-2 vs. iNOS null male mice obtained from Jackson Laboratory (Bar Harbor, ME). Growth response to oral daily TasQ (10 mg/kg/d) of TRAMP-C2 and B6CaP mouse prostate cancers was also evaluated in S100A9 null C57BL′6J male mice obtained from Dmitry Gabrilovich (Wistar Institute). […] In vitro growth curves were determined as described (Isaacs 2013). Growth response to daily oral TasQ vs. ESATA-20 (both at 10 mg/kg/d) of Myc-CaP-CR mouse prostate cancer was evaluated in syngeneic FVB/NJ castrate male mice from Jackson Laboratory. […]

[2] = test system: AHR protein in LNCaP cells; assay: AHR translocation and downregulation in LNCaP cells (immunoblot); assay type: cell-based, human; details: TasQ 10 μM
Experimental: Western Blot Analysis. Analysis and quantification of protein expression via immunoblot was performed as previously described (Brennen 2021). All assays were performed with total cell lysates from an equal number (i.e., 100,000) of cells loaded per lane for accurate comparisons across cell lines and conditions.

HIF-1α protein in tumors = details: daily oral 10 mg/kg/d; cited from earlier work
[3] = test system: TRAMP-C2 mouse prostate cancer; assay: In vivo growth of TRAMP-C2 allografts in C57BL/6J wild type vs. NOX2-, iNOS-, S100A9-KO hosts; details: daily oral 10 mg/kg/d over a 3-week period; wild type and KO hosts
From the text: as §1

Water solubility = assay type: physicochemical
[4] = test system: human prostate cancer cell lines; assay: In vitro growth of human prostate cancer cell lines; assay type: cell-based; details: CWR22Rv1, 3 of the 4 lines (FIGS. 48A-48C: BCap-1, LgCap-1, CWR-22Rv1)
From the text: as §1

Row | SMILES | growth inhibition of wild type xenografts [1] [%] | time to downregulation of the AHR protein [2] [h] | lowering of HIF-1α protein in tumors (HIF-1α protein in tumors) [%] | inhibition of tumor growth [3] [%] | water solubility compared with TasQ (Water solubility) | IC50 [4] [µM]
1 | COc1cccc2c1c(O)c(C(=O)N(C)c1ccc(C(F)(F)F)cc1)c(=O)n2C [TasQ, Tasquinimod] | > 80 | 2 to 4 | > 50 | > 70 | – | –
2 | COc1cccc2c1c(O)c(C(=O)N(c1ccc(C(F)(F)F)cc1)C1CCCCC1)c(=O)n2C [ESATA-20] | – | – | – | – | less water soluble than TasQ | < 10
